Type in all cases: cell-based
Experiment [1] concerns SaR3: Meticillin-Resistant Staphylococcus aureus. Nature of the experiment: Antibiogram by the disk diffusion technique. Conditions: for Diameter: Table E1; for diameter in mm: Table E2. How it is done:
(§1) The bacterial and antibiogramidentification is carried out by the VITEK 2 system (bioMérieux) and by the disk diffusion technique

For experiment [2], the system named is SaR4: Meticillin-Resistant Staphylococcus aureus. The experiment is described as follows: Antibiogram by the disk diffusion technique. The method, then: as §1
In experiment [3] the test system is SaR1: Meticillin-Resistant Staphylococcus aureus without Associated Resistance. Nature of the experiment: Antibiogram, inhibition diameter (Table D1). The method, then: (§2) The bacterial and antibiogramidentification is carried out by the VITEK 2 system (bioMérieux)
Experiment [4] has the same test system. The experiment is described as follows: Antibiogram, MIC by the VITEK 2 system. Conditions: SaR1. The method, then:
as §2

For experiment [5], the system named is Escherichia coli strain ATCC 25922 (wild type). Nature of the experiment: MIC of the compounds used alone, microdilution in a liquid medium (CLSI). Conditions: Escherichia coli, ATCC25922; antibiotic alone (second value of cell); E. coli ATCC 25922; read-out: Initial MICs. The source says: (§3) The MICs of the antibiotics were previously defined for each strain, by the method of microdilution in a liquid medium (CLSI (Clinical and Laboratory Standards Institute), 2003).

Experiment [6] concerns penicillinase-producing strain of Escherichia coli without associated resistance (EcR1). The description is as above. The settings on record: Escherichia coli, antibiotic alone (second value of cell), read-out: Initial MICs.
Source text: as §3

The subject of experiment [7] is cephalosporinase-hyperproducing strain of Escherichia coli (EcR2). Described as above. The settings on record: Escherichia coli, antibiotic alone (second value of cell), read-out: Initial MICs.
Source text: as §3

Experiment [8] relates to ESBL-producing strain of Escherichia coli, having an associated resistance to the aminoglycosides (EcR3). The description is as above. The settings on record: Escherichia coli, antibiotic alone (second value of cell), read-out: Initial MICs.
Source text: as §3

Experiment [9] concerns EcR1: Penicillinase-Producing Escherichia coli without Associated Resistance. The experiment is described as follows: Antibiogram by the disk diffusion technique. The settings on record: for Diameter: EcR1, disk diffusion; for Diameter / Results: Table A1; for Results: EcR1, interpretation of the diameter against Dmin Dmax. The method, then: (§4) 5.1 EcR1: Penicillinase-Producing Escherichia coli without Associated Resistance The bacterial and antibiogramidentification is carried out by the VITEK 2 system (bioMérieux) and by the disk diffusion technique.

The test system is the same in experiment [10]. Nature of the experiment: Antibiogram, MIC by the VITEK 2 system. Conditions: for CA-SFM Interpretation: EcR1, MIC against Cc CA-SFM 2011; for CLSI Interpretation: EcR1, MIC against Cc CLSI 2011; for EUCAST Interpretation: EcR1, MIC against Cc EUCAST 2011; for Results: EcR1, interpretation of the MIC, Table A1; for MIC: Escherichia coli. How it is done:
as §4

Experiment [11] concerns EcR3: ESBL-Producing Escherichia coli. Nature of the experiment: Antibiogram by the disk diffusion technique. Conditions: for CA-SFM Interpretation: Cd CA-SFM 2011; for CLSI Interpretation: Cd CLSI 2011; for EUCAST Interpretation: Cd EUCAST 2011; for Diameter: Table C1; for Results: Table C1, against Dmin Dmax; for diameter in mm: Table C2. The method, then:
The bacterial and antibiogramidentification is carried out by the VITEK 2 system (bioMerieux) and by the disk diffusion technique

Experiment [12] relates to EcR2: Cephalosporinase-Hyperproducing Strain of Escherichia coli. Nature of the experiment: Antibiogram, MIC by the VITEK 1 system. Conditions: for MIC: Escherichia coli, read-out: MIC. How it is done: The bacterial and antibiogramidentification is carried out by the VITEK 1 system (bioMérieux) and by the disk diffusion technique
Experiment [13] has as its system PaR5: Pseudomonas aeruginosa. Nature of the experiment: Antibiogram by the disk diffusion technique. Conditions: for diameter in mm: disk diffusion inhibition diameter, strain PaR5. The method, then: as §1
Experiment [14] relates to SaR4: Meticillin-Resistant Staphylococcus aureus. Nature of the experiment: Antibiogram, MIC by the VITEK 2 system. The settings on record: SaR4. The method, then:
as §1

In experiment [15] the test system is PaR2: Pseudomonas aeruginosa. The settings on record: for Diameter: Table G1; for diameter in mm: Table G2. How it is done:
as §1

Experiment [16] relates to PaR3: Pseudomonas aeruginosa. Nature of the experiment: Antibiogram, MIC by the VITEK 2 system. The method, then: as §2
[17] abbreviates: Staphylococcus aureus, Table D1, read-out: MIC.
Where [18] appears, read: EcR1, Table A2, read-out: MIC mg/L (diameter in mm).
Where [19] appears, read: EcR1, VITEK 2, Table A1, read-out: MIC.
The mark [20] stands for this setting: Staphylococcus aureus, Table F1, read-out: MIC.
Where [21] appears, read: Staphylococcus aureus, Table F2, MIC, read-out: MIC.
The mark [22] stands for this setting: Pseudomonas aeruginosa, Table H2, read-out: MIC.

≈ marks a conversion by molar mass, not a printed value. Like-named read-outs stand apart in the source and are kept apart here. Where only a bound is given, the exact number is not on record here.

With `NC[C@H]1O[C@H](O[C@H]2[C@H](O)[C@@H](O[C@H]3O[C@H](CO)[C@@H](O)[C@H](N)[C@H]3O)[C@H](N)C[C@@H]2N)[C@H](O)[C@@H](O)[C@@H]1O` [Kanamycin], the Diameter in experiment [1] came out at 6 mm; in experiment [2] (Table F1), 7; in [2] (Table F2, diameters), 7 mm; in experiment [3], 20 mm. Further, the diameter in mm in [1] was found to be 6 mm. For the same compound, the “MIC mg/L” value in experiment [4] (Table D2) is “≦4 mg/L”. Further, in experiment [4] (setting [17]), the MIC was at most 4 µg/mL.

In the case of `C[C@@H](O)[C@H]1C(=O)N2C(C(=O)O)=C(S[C@@H]3CN[C@H](C(=O)Nc4cccc(C(=O)O)c4)C3)[C@H](C)[C@H]12` [Ertapenem], the MIC in experiment [5] worked out at 0.015 µg/mL; in experiment [6], 0.015 µg/mL; in [7] it was 0.03 µg/mL; in experiment [8], 0.0015 µg/mL.

Consider `CC1(C)S[C@@H]2[C@H](NC(=O)[C@H](N)c3ccc(O)cc3)C(=O)N2[C@H]1C(=O)O` [Amoxicillin], for which the MIC in experiment [5] was 4 µg/mL; in experiment [6] it was over 256 µg/mL; in experiment [7], 256 µg/mL; in experiment [8], over 256 µg/mL; in experiment [10] (setting [18]), at least 32 mg/L; in experiment [10] (setting [19]), at least 32 mg/L. Also, the MIC in experiment [12] (EcR2, VITEK 1, Table B1) is at least 32 µg/mL; in experiment [12] (EcR2, Table B2, MIC), at least 32 µg/mL. In addition, the Diameter in [9] and in [11] was 6 mm each time. In addition, the Results entry in experiment [9] is on record as “Resistant”; in experiment [10] it was “Resistant”; in experiment [11] it was “Resistant”; in [12] (EcR2, Table B1), “Resistant”. Also, the “CA-SFM Interpretation” value in experiment [10] is given as “Resistant”; in experiment [11] it was “Resistant”; in experiment [12] (EcR2, from MIC, Cc CA-SFM 2011), “Resistant”. The “CLSI Interpretation” value is given as “Resistant” in experiment [10]; “Resistant” in experiment [11]; “Resistant” in experiment [12] (EcR2, from MIC, Cc CLSI 2011). The “EUCAST Interpretation” value is “Resistant” in [10]; “Resistant” in experiment [11]; “Resistant” in [12] (EcR2, from MIC, Cc EUCAST 2011). The same compound yielded a diameter in mm in experiment [11] of 6 mm.

As for `CC1COc2c(N3CCN(C)CC3)c(F)cc3c(=O)c(C(=O)O)cn1c23` (stereo not shown) [Ofloxacin], the Diameter in experiment [1] came out at 6 mm; in [13] (PaR5, Table I1), 11 mm; in [3] it was 24 mm. In [1], this compound came in with a diameter in mm of 6 mm. For the same compound, the MIC in experiment [10] (setting [18]) is at most 0.25 mg/L; in experiment [10] (setting [19]), at most 0.25 mg/L; in [4] (Table D2), 1 µg/mL (≈ 2.77 µM); in experiment [4] (setting [17]) it was 1 µg/mL (≈ 2.77 µM); in [14] (setting [20]), at least 8 µg/mL; in experiment [14] (setting [21]), at least 8 µg/mL.

On to Pristinamycin, for which the “CA-SFM Interpretation” value in experiment [1] (Cd CA-SFM 2011) is “Susceptible”; in experiment [4] (Cc CA-SFM 2011), “Susceptible”; in experiment [14] (from MIC, Cc CA-SFM 2011), “Susceptible”. Also, the figures for the Diameter in [1] and in experiment [3] were 23 mm and 25 mm, respectively. Further, the Results result in experiment [1] (Table E1, against Dmin Dmax) is recorded as “Susceptible”; in experiment [3] (from diameter, against Dmin Dmax) it was “Susceptible”; in experiment [4] (Table D1, from MIC), “Susceptible”; in experiment [14] (Table F1, MIC), “Susceptible”. In experiment [1], the diameter in mm is listed as 23 mm. For the same compound, the “MIC mg/L” value in [4] (Table D1) is given as “≦0.5 mg/L”; in experiment [4] (Table D2) it was “≦0.5 mg/L”; in [14] (Table F1), “≦2 mg/L”. Also, the MIC result in experiment [14] (Table F2, MIC) was “≦2 mg/L”.

`CN(C)c1ccc(O)c2c1C[C@H]1C[C@H]3[C@H](N(C)C)C(O)=C(C(N)=O)C(=O)[C@@]3(O)C(O)=C1C2=O` [Minocycline]: the Diameter came out at 26 mm in experiment [1]; 11 mm in experiment [13] (PaR5, Table I1); 20 mm in experiment [9]; 27 mm in experiment [3]; 6 mm in experiment [15]; 21 mm in experiment [11]. Further, the diameter in mm in experiment [1] is listed as 26 mm; in [13], 11 mm; in experiment [15], 6 mm; in [11] it was 21 mm. In addition, the “MIC mg/L (diameter in mm)” value in experiment [9] (EcR1, cells that print a diameter, Table A2) came out at 20 mm. Also, the MIC in experiment [16] (setting [22]) is 4 µg/mL (≈ 8.74 µM); in experiment [16] (Table H1) it was 4 µg/mL (≈ 8.74 µM); in [4] (setting [17]) it was at most 0.5 µg/mL; in [14] (setting [20]) it was at most 4 µg/mL; in [14] (setting [21]) it was at most 0.5 µg/mL. Also, in experiment [4] (Table D2), the “MIC mg/L” value is “≦0.5 mg/L”.

Take `CCN1CCN(C(=O)N[C@@H](C(=O)N[C@@H]2C(=O)N3[C@@H]2SC(C)(C)[C@@H]3C(=O)O)c2ccccc2)C(=O)C1=O` [Piperacillin]: the MIC in experiment [5] was 2 µg/mL; in [6] it was 256 µg/mL; in [7] it was 32 µg/mL; in experiment [8], 128 µg/mL; in experiment [10] (setting [18]), at most 8 mg/L; in experiment [10] (setting [19]), at most 8 mg/L. Moreover, the MIC in [16] (setting [22]) is at least 128 µg/mL; in experiment [16] (Table H1), “≧128”. Also, the Diameter came out at 33 mm in [13] (PaR5, Table I1); 17 mm in experiment [9]; 22 mm in experiment [15]; 13 mm in experiment [11]. Moreover, the Results entry in [13] (PaR5, Table I1, against Dmin-Dmax) was “Susceptible”; in [9], “Intermediate”; in [10], “Susceptible”; in [15] (Table G1, against Dmin-Dmax), “Susceptible”; in experiment [16] (Table H1), “Resistant”; in experiment [11] it was “Intermediate”. Further, the diameter in mm in [13] was found to be 33 mm; in experiment [15], 22 mm; in [11], 13 mm. The “CA-SFM Interpretation” value in experiment [13] (disk diffusion, PaR5, versus critical diameter CA-SFM 2011) was “Susceptible”; in experiment [10] it was “Susceptible”; in [15] (Cd CA-SFM 2011), “Susceptible”; in experiment [16] (Cc CA-SFM 2011), “Resistant”; in experiment [11] it was “Resistant”. Further, the “CLSI Interpretation” value is “Susceptible” in experiment [13] (disk diffusion, PaR5, versus critical diameter CLSI 2011); “Susceptible” in experiment [10]; “Susceptible” in experiment [15] (Cd CLSI 2011); “Resistant” in experiment [16] (Cc CLSI 2011); “Resistant” in experiment [11]. The “EUCAST Interpretation” value was “Susceptible” in [13] (disk diffusion, PaR5, versus critical diameter EUCAST 2011, for ** antibiotics the disk load differs and the EUCAST interpretation is not applicable); “Susceptible” in [10]; “Susceptible” in [15] (Cd EUCAST 2011); “Resistant” in [16] (Cc EUCAST 2011); “Resistant” in [11].

These data come from patent US20140066365A1, “USE OF CALIXARENES ASSOCIATED WITH AN ANTIBIOTIC IN THE TREATMENT OF BACTERIAL INFECTIONS” (priority 2011, published 2014).
